Assay results: patent publication US20060293307A1, “Oxazolidinone derivatives as antimicrobials” (priority 2002, published 2006)
In brackets after ≈: the same amount, converted by molar mass. Where two headings read alike, the source gives them in different places.

Assays:
Experiment in all cases: MIC, agar incorporation method
E. faecalis SP 346 (VRE) = type: cell-based; conditions: Enterococcus faecalis
[1] = test system: Serratia marcescens 12999; type: cell-based
S. pyogenes 20361 = type: cell-based, Streptococcus pyogenes; conditions: Streptococcus pyogenes
P. aeruginosa ATCC 27853 = type: cell-based; conditions: Pseudomonas aeruginosa, ATCC27853
S. pneumoniae AB 10 = type: cell-based, Streptococcus pneumoniae; conditions: Streptococcus pneumoniae, AB10
Salmonella 205 = type: cell-based; conditions: S. No. 26, Salmonella 205; read-out: MIC
Method: The compounds of the invention display antibacterial activity when tested by the agar incorporation method. The following minimum inhibitory concentrations (μg/ml) were obtained for representative compounds of the invention which are given below in the following tables.
Briefly, the compounds were dissolved in DMSO and doubling dilution of the compounds were incorporated into Meer Hilton agar before solidification. Inoculum was prepared by suspending 4 to 5 colonies into 5 ml of normal saline solution and adjusting the turbidity to 0.5 Macfarland turbidity standard tables (1.5×10^8 CFU/ml), after appropriate dilutions, 10^4 CFU/spot was transfered into the surface of dried plate and incubated for 18 hours (24 hours for MRSN studies). The concentration showing no growth of the inoculated culture was recorded as the MIC. Appropriate ATCC standard strains were simultaneously tested and result recorded only when the MIC's against standard antibiotics were within the acceptable range.

S. pneumoniae 1251 = type: cell-based, Streptococcus pneumoniae; conditions: Streptococcus pneumoniae
S. pneumoniae AB 25 = type: cell-based, Streptococcus pneumoniae; conditions: Streptococcus pneumoniae, AB25
K. oxytoca 49131 = type: cell-based; conditions: Klebsiella oxytoca
E. faecium 398(VRE) = type: cell-based, Enterococcus faecium; conditions: Enterococcus faecium
[2] = test system: S. aureus (MRSA 33) Cipro R; type: cell-based, Staphylococcus aureus; conditions: Staphylococcus aureus
S. pneumoniae 1256 = type: cell-based, Streptococcus pneumoniae; conditions: Streptococcus pneumoniae
S pneumoniae 1294. = type: cell-based, Streptococcus pneumoniae; conditions: Streptococcus pneumoniae
E. durans 581 = type: cell-based; conditions: Enterococcus durans
S. pneumoniae ATCC 49619 = type: cell-based, Streptococcus pneumoniae; conditions: Streptococcus pneumoniae, ATCC49619
S. pneumoniae AB4 = type: cell-based, Streptococcus pneumoniae; conditions: Streptococcus pneumoniae
Moraxella cata. M2 = type: cell-based
S. pneumoniae AB 29 = type: cell-based, Streptococcus pneumoniae; conditions: Streptococcus pneumoniae, AB29
S. pneumoniae 217 = type: cell-based, Streptococcus pneumoniae; conditions: Streptococcus pneumoniae
S. pneumoniae AB 16 = type: cell-based, Streptococcus pneumoniae; conditions: Streptococcus pneumoniae, AB16
S. pyogenes 19615 = type: cell-based, Streptococcus pyogenes; conditions: Streptococcus pyogenes
S. aureus (MRSA) 21299 = type: cell-based, Staphylococcus aureus; conditions: Staphylococcus aureus
S. pneumoniae AB 34 = type: cell-based, Streptococcus pneumoniae; conditions: Streptococcus pneumoniae, AB34
S. aureus SG 511 = type: cell-based, Staphylococcus aureus; conditions: Staphylococcus aureus, SG511
S. pneumoniae AB 21 = type: cell-based, Streptococcus pneumoniae; conditions: Streptococcus pneumoniae, AB21
[3] = test system: S. epidermidis (MRSE) 23760; type: cell-based, Staphylococcus epidermidis; conditions: Staphylococcus epidermidis
S. pneumoniae AB 23 = type: cell-based, Streptococcus pneumoniae; conditions: Streptococcus pneumoniae, AB23
E. faecalis 21777 = type: cell-based; conditions: Enterococcus faecalis
S. pneumoniae AB 30 = type: cell-based, Streptococcus pneumoniae; conditions: Streptococcus pneumoniae, AB30
S. pneumoniae 1275 = type: cell-based, Streptococcus pneumoniae; conditions: Streptococcus pneumoniae
S. aureus (MRSA) 15187 = type: cell-based, Staphylococcus aureus; conditions: Staphylococcus aureus
S. pneumoniae AB-2 = type: cell-based, Streptococcus pneumoniae; conditions: Streptococcus pneumoniae, AB2

## O=C(NC[C@H]1CN(c2ccc(N3CCN(c4ccc([N+](=O)[O-])s4)CC3)c(F)c2)C(=O)O1)C(F)F [Compound No. 8, (S)—N-[[3-[3-Fluoro-4-[4-(5-nitro-2-thienyl)-1-piperazinyl]phenyl]-2-oxo-5-oxazolidinyl]methyl]difluoroacetamide]
E. faecalis SP 346 (VRE); VRE
  MIC: 0.25 µg/mL (≈ 0.501 µM)
[1]; Serratia marcescens, 12999
  MIC: > 8 µg/mL
S. pyogenes 20361; 20361
  MIC: 0.25 µg/mL (≈ 0.501 µM)
P. aeruginosa ATCC 27853
  MIC: > 8 µg/mL
S. pneumoniae AB 10
  MIC: 0.125 µg/mL (≈ 0.25 µM)
Salmonella 205
  MIC: > 8 µg/mL
S. pneumoniae 1251; 1251
  MIC: 0.25 µg/mL (≈ 0.501 µM)
S. pneumoniae AB 25
  MIC: 0.25 µg/mL (≈ 0.501 µM)
K. oxytoca 49131; 49131
  MIC: > 8 µg/mL
E. faecium 398(VRE); VRE
  MIC: 0.25 µg/mL (≈ 0.501 µM)
[2]; MRSA
  MIC: 2 µg/mL (≈ 4 µM)
S. pneumoniae 1256; 1256
  MIC: 0.125 µg/mL (≈ 0.25 µM)
S pneumoniae 1294.; 1294.
  MIC: 0.25 µg/mL (≈ 0.501 µM)
E. durans 581; 581
  MIC: 0.25 µg/mL (≈ 0.501 µM)
S. pneumoniae ATCC 49619
  MIC: 0.25 µg/mL (≈ 0.501 µM)
S. pneumoniae AB4; AB4
  MIC: 0.125 µg/mL (≈ 0.25 µM)
Moraxella cata. M2; Moraxella, CATA.M2
  MIC: 1 µg/mL (≈ 2 µM)
S. pneumoniae AB 29
  MIC: 0.25 µg/mL (≈ 0.501 µM)
S. pneumoniae 217; 217
  MIC: 0.25 µg/mL (≈ 0.501 µM)
S. pneumoniae AB 16
  MIC: 0.25 µg/mL (≈ 0.501 µM)
S. pyogenes 19615; 19615
  MIC: 0.25 µg/mL (≈ 0.501 µM)
S. aureus (MRSA) 21299; MRSA
  MIC: 2 µg/mL (≈ 4 µM)
S. pneumoniae AB 34
  MIC: 0.5 µg/mL (≈ 1 µM)
S. aureus SG 511
  MIC: 0.25 µg/mL (≈ 0.501 µM)
S. pneumoniae AB 21
  MIC: 0.25 µg/mL (≈ 0.501 µM)
[3]; MRSE
  MIC: 0.25 µg/mL (≈ 0.501 µM)
S. pneumoniae AB 23
  MIC: 0.25 µg/mL (≈ 0.501 µM)
E. faecalis 21777; 21777
  MIC: 2 µg/mL (≈ 4 µM)
S. pneumoniae AB 30
  MIC: 0.25 µg/mL (≈ 0.501 µM)
S. pneumoniae 1275; 1275
  MIC: 0.06 µg/mL (≈ 0.12 µM)
S. aureus (MRSA) 15187; MRSA
  MIC: 2 µg/mL (≈ 4 µM)
S. pneumoniae AB-2
  MIC: 0.125 µg/mL (≈ 0.25 µM)

## CC(=O)NC[C@H]1CN(c2ccc(N3CCN(c4ccc([N+](=O)[O-])o4)CC3)c(F)c2)C(=O)O1 [Compound No. 4, (S)—N-[[3-[3-Fluoro-4-[4-(5-nitro-2-furyl)-1-piperazinyl]phenyl]-2-oxo-5-oxazolidinyl]methyl]acetamide]
E. faecalis SP 346 (VRE); S. No. 20, E. faecalis SP 346 (VRE), read-out: MIC
  MIC: 8 µg/mL (≈ 17.9 µM)
[1]; S. No. 29, Serratia marcescens 12999, read-out: MIC
  MIC: > 16 µg/mL
S. pyogenes 20361; S. No. 53, S. pyogenes 20361, read-out: MIC
  MIC: 4 µg/mL (≈ 8.94 µM)
P. aeruginosa ATCC 27853; S. No. 28, P. aeruginosa ATCC 27853, read-out: MIC
  MIC: > 16 µg/mL
S. pneumoniae AB 10; S. No. 35, S. pneumoniae AB 10, read-out: MIC
  MIC: 4 µg/mL (≈ 8.94 µM)
Salmonella 205
  MIC: > 16 µg/mL
S. pneumoniae 1251; S. No. 54, S. pneumoniae 1251, read-out: MIC
  MIC: 4 µg/mL (≈ 8.94 µM)
S. pneumoniae AB 25; S. No. 45, S. pneumoniae AB 25, read-out: MIC
  MIC: 4 µg/mL (≈ 8.94 µM)
K. oxytoca 49131; S. No. 27, K. oxytoca 49131, read-out: MIC
  MIC: > 16 µg/mL
E. faecium 398(VRE); S. No. 22, E. faecium 398(VRE), read-out: MIC
  MIC: 4 µg/mL (≈ 8.94 µM)
[2]; S. No. 7, S. aureus (MRSA 33) Cipro R, read-out: MIC
  MIC: 8 µg/mL (≈ 17.9 µM)
S. pneumoniae 1256; S. No. 56, S. pneumoniae 1256, read-out: MIC
  MIC: 4 µg/mL (≈ 8.94 µM)
S pneumoniae 1294.; S. No. 55, S pneumoniae 1294., read-out: MIC
  MIC: 8 µg/mL (≈ 17.9 µM)
E. durans 581; S. No. 24, E. durans 581, read-out: MIC
  MIC: 4 µg/mL (≈ 8.94 µM)
S. pneumoniae ATCC 49619; S. No. 48, S. pneumoniae ATCC 49619, read-out: MIC
  MIC: 4 µg/mL (≈ 8.94 µM)
S. pneumoniae AB4; S. No. 33, S. pneumoniae AB4, read-out: MIC
  MIC: 8 µg/mL (≈ 17.9 µM)
Moraxella cata. M2; S. No. 59, Moraxella cata. M2, read-out: MIC
  MIC: > 16 µg/mL
S. pneumoniae AB 29; S. No. 46, S. pneumoniae AB 29, read-out: MIC
  MIC: 4 µg/mL (≈ 8.94 µM)
S. pneumoniae 217; S. No. 38, S. pneumoniae 217, read-out: MIC
  MIC: 4 µg/mL (≈ 8.94 µM)
S. pneumoniae AB 16; S. No. 39, S. pneumoniae AB 16, read-out: MIC
  MIC: 8 µg/mL (≈ 17.9 µM)
S. pyogenes 19615; S. No. 51, S. pyogenes 19615, read-out: MIC
  MIC: 4 µg/mL (≈ 8.94 µM)
S. aureus (MRSA) 21299; S. No. 5, S. aureus (MRSA) 21299, read-out: MIC
  MIC: 8 µg/mL (≈ 17.9 µM)
S. pneumoniae AB 34; S. No. 49, S. pneumoniae AB 34, read-out: MIC
  MIC: 4 µg/mL (≈ 8.94 µM)
S. aureus SG 511; S. No. 3, S. aureus SG 511, read-out: MIC
  MIC: 16 µg/mL (≈ 35.8 µM)
S. pneumoniae AB 21; S. No. 41, S. pneumoniae AB 21, read-out: MIC
  MIC: 8 µg/mL (≈ 17.9 µM)
[3]; S. No. 11, S. epidermidis (MRSE) 23760, read-out: MIC
  MIC: 4 µg/mL (≈ 8.94 µM)
S. pneumoniae AB 23; S. No. 43, S. pneumoniae AB 23, read-out: MIC
  MIC: 8 µg/mL (≈ 17.9 µM)
E. faecalis 21777; S. No. 18, E. faecalis 21777, read-out: MIC
  MIC: 8 µg/mL (≈ 17.9 µM)
S. pneumoniae AB 30; S. No. 47, S. pneumoniae AB 30, read-out: MIC
  MIC: 4 µg/mL (≈ 8.94 µM)
S. pneumoniae 1275; S. No. 57, S. pneumoniae 1275, read-out: MIC
  MIC: 2 µg/mL (≈ 4.47 µM)
S. aureus (MRSA) 15187; S. No. 4, S. aureus (MRSA) 15187, read-out: MIC
  MIC: 8 µg/mL (≈ 17.9 µM)
S. pneumoniae AB-2; S. No. 31, S. pneumoniae AB-2, read-out: MIC
  MIC: 8 µg/mL (≈ 17.9 µM)
